Assay results: patent publication US20050032873A1, “3-Amino chroman and 2-amino tetralin derivatives” (Wyeth, priority 2003, published 2005)
Where two headings read alike, the source gives them in different places.

Legend:
serotonin transporter = target: T1, serotonin transporter (Rattus norvegicus, UniProt P31652); test: 5-HT transporter affinity: displacement of 3H-paroxetine from male rat cortical membranes; type: binding; conditions: displacement of 3H-paroxetine; male rat cortical membranes; read-out: 5-HT Transporter Affinity Ki
T1 construct: displace ^3H-paroxetine from male rat cortical membranes; from tissue; host or cells: male rat cortical membranes

[1] = target: T2, cloned human 5-HT1A receptors (Homo sapiens, UniProt P08908); test: 35S-GTPγS binding assay, 5-HT1A function; type: biochemical; conditions: for IC50: antagonist potency, reversal of 8-OH-DPAT, read-out: 5-HT1A Function GTPγS IC50; for EC50: agonist potency
T2 construct: expressed in transfected cells
T2 sequence (P08908 1-422): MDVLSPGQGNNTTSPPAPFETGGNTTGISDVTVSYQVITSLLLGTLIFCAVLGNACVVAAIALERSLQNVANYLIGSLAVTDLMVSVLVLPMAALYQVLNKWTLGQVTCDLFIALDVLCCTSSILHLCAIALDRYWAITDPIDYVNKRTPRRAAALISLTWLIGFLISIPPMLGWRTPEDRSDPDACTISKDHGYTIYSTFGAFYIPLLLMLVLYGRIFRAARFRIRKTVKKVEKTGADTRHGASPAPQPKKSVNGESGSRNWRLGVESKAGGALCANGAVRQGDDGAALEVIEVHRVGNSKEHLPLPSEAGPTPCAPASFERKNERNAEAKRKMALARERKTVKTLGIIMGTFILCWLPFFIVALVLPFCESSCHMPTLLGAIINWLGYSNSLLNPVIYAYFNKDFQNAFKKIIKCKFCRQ

5-HT1A receptor [2] = target: T3, 5-HT1A receptor (Homo sapiens, UniProt P08908); test: cAMP accumulation assay, 5-HT1A function; type: cell-based; conditions: for IC50: cells marked IC50 (antagonist), read-out: 5-HT1A Function cAMP IC50; for Emax / 5-HT1A Function cAMP (Emax): in brackets after EC50 or IC50; for Emax: read-out: 5-HT1A Function cAMP (Emax); for EC50: cells marked EC50 (agonist)
T3 sequence (P08908 1-422): T2 sequence (P08908 1-422)
Source text: The agonist or antagonist activity at 5-HT1A receptors was established by using two different assays. […] Agonists produce an increase in binding whereas antagonists produce no increase but rather reverse the effects of the standard agonist 8-OH-DPAT. The test compound's maximum stimulatory effect is represented as the Emax, while its potency is defined by the EC50. The test compound's maximum inhibitory effect is represented as the Imax, while its potency is defined by the IC50. The second assay measured cAMP accumulation upon binding of the ligand to the 5-HT1A receptor. […] The test compound's maximum stimulatory or inhibitory effect is represented as the Emax while its potency is defined by either IC50 for an antagonist or EC50 for an agonist. [^3H]-8-OH-DPAT was used to determine maximum agonist or antagonist response in both functional assays.

5-HT1A receptor [3] = target: T3, 5-HT1A receptor; test: 5-HT1A receptor affinity: displacement of [3H] 8-OH-DPAT; type: binding; set-up: expressed in transfected cells; conditions: displacement of [3H] 8-OH-DPAT; CHO cells stably transfected with human 5-HT1A receptors; read-out: 5-HT1A Receptor Affinity Ki
[4] = maximum inhibitory effect, in brackets after IC50, read-out: 5-HT1A Function GTPγS (Imax)

T1 sequence (P31652 whole entry): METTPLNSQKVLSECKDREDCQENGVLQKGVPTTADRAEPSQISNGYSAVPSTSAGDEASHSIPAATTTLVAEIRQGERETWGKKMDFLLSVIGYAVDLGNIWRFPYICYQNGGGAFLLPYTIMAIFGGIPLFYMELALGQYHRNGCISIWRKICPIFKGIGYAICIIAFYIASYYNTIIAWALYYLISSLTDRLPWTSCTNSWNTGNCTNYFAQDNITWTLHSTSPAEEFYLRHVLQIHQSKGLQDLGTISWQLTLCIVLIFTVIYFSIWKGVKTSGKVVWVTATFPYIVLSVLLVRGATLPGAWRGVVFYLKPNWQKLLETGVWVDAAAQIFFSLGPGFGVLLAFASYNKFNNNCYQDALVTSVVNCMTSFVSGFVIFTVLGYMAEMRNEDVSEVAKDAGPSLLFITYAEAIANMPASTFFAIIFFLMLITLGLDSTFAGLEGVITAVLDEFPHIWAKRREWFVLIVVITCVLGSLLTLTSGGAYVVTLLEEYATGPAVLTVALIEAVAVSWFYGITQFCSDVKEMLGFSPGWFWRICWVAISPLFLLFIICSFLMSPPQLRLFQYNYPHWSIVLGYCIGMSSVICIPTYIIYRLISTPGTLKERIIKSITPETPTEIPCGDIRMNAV

Row | Molecule | Ki (serotonin transporter) | IC50 [1] | Emax [1, 4] | IC50 (5-HT1A receptor [2]) | Emax (5-HT1A receptor [2]) | Ki (5-HT1A receptor [3]) | EC50 [1] | Emax ([1]; maximum stimulatory effect, in brackets after EC50, read-out: 5-HT1A Function GTPγS (Emax)) | EC50 (5-HT1A receptor [2]) | 5-HT1A Function GTPγS (Emax) ([1]; maximum stimulatory effect, in brackets after EC50) | 5-HT1A Function cAMP (Emax) (5-HT1A receptor [2]) | 5-HT1A Function GTPγS (Imax) ([1]; maximum inhibitory effect, in brackets after IC50)
1 | CNC(=O)c1ccc(F)c2c1C[C@@H](N(CCCCc1c[nH]c3ccc(F)cc13)C1CCC1)CO2 [Compound 145b, (3R)-3-{cyclobutyl[4-(5-fluoro-1H-indol-3-yl)butyl]amino}-8-fluoro-N-methylchromane-5-carboxamide] | 8.63 nM | 1270 nM | 100% | 848 nM | 0% | 6.29 nM |  |  |  |  |  | 
2 | NC(=O)c1ccc(F)c2c1CC(N(CCCc1c[nH]c3c(Cl)cccc13)C1CCC1)CO2 (stereo not drawn) [Compound 111, 3-[[3-(7-chloro-1H-indol-3-yl)propyl](cyclobutyl)amino]-8-fluorochromane-5-carboxamide] | 66 nM | 1600 nM | 100% | 1060 nM | 0% | 26 nM |  |  |  |  |  | 
3 | COc1ccc2[nH]cc(CCCN(CC3CC3)C3COc4c(F)ccc(C(N)=O)c4C3)c2c1 (stereo not drawn) [Compound 108, 3-{(cyclopropylmethyl)[3-(5-methoxy-1H-indol-3-yl)propyl]amino}-8-fluorochromane-5-carboxamide] | 882 nM | 94.2 nM | 100% | 45.4 nM | 0% | 1.17 nM |  |  |  |  |  | 
4 | COC(=O)c1cccc2c1CC(N(CCCc1c[nH]c3c(F)cc(F)cc13)C1CCC1)CO2 (stereo not drawn) [Compound 136, Methyl 3-{cyclobutyl[3-(5,7-difluoro-1H-indol-3-yl)propyl]amino}chromane-5-carboxylate] | 203 nM |  |  |  | 89% | 27.6 nM | 1330 nM | 95% | 635 nM |  |  | 
5 | [3-(5-fluoro-1H-indol-3-yl)-propyl]-(8-fluoro-5-methoxychroman-3-yl)propylamine [Compound 26] | 12.5 nM |  |  |  |  | 19.4 nM | 210 nM |  | 23.6 nM | 79.5% | 83.5% | 
6 | CCN(CC1CCc2[nH]c3ccc(F)cc3c2C1)[C@H]1COc2c(F)ccc(C(N)=O)c2C1 (single isomer, unassigned; (+)) [Compound 176b] | 165 nM | 827 nM |  | 669 nM |  | 24.6 nM |  |  |  |  | 0% | 88%
7 | NC(=O)c1ccc(F)c2c1C[C@@H](N(CCCc1c[nH]c3c(F)cc(F)cc13)CC1CC1)CO2 [Compound 147, (3R)-3-{(cyclopropylmethyl)[3-(5,7-difluoro-1H-indol-3-yl)propyl]amino}-8-fluorochromane-5-carboxamide] | 10.7 nM |  |  | 505 nM | 0% | 3.04 nM |  |  |  |  |  | 
8 | CCCN(CCCCn1ccc2c(F)cccc21)C1COc2c(F)ccc(C(N)=O)c2C1 (stereo not drawn) [Compound 202, 8-Fluoro-3-[[4-(4-fluoro-1H-indol-1-yl)butyl](propyl)amino]chromane-5-carboxamide] | 210 nM |  |  |  | 78% | 14 nM |  |  | 137 nM |  |  | 
9 | CCCN(CCCCn1ccc2cc(F)ccc21)C1COc2c(F)ccc(C(N)=O)c2C1 (stereo not drawn) [Compound 198, 8-Fluoro-3-[[4-(5-fluoro-1H-indol-1-yl)butyl](propyl)amino]chromane-5-carboxamide] | 114 nM |  |  |  | 82% | 6.54 nM |  |  | 67.7 nM |  |  | 
10 | N#Cc1ccc2[nH]cc(CCCN(C3CCC3)[C@@H]3COc4c(F)ccc(C(N)=O)c4C3)c2c1 [Compound 97a, (3S)-3-[[3-(5-cyano-1H-indol-3-yl)propyl](cyclobutyl)amino]-8-fluorochromane-5-carboxamide] | 9 nM |  |  | 581 nM | 0% | 258 nM |  |  |  |  |  | 
11 | CCCN(CCCCn1ccc2ccc(F)cc21)C1COc2c(F)ccc(C(N)=O)c2C1 (stereo not drawn) [Compound 194, 8-Fluoro-3-[[4-(6-fluoro-1H-indol-1-yl)butyl](propyl)amino]chromane-5-carboxamide] | 70 nM |  |  |  | 81% | 10.7 nM |  |  | 74.1 nM |  |  | 
12 | CC(C)CN(CCCc1c[nH]c2ccc(F)cc12)C1COc2cccc(C(N)=O)c2C1 (stereo not drawn) [Compound 151, 3-[[3-(5-fluoro-1H-indol-3-yl)propyl](isobutyl)amino]chromane-5-carboxamide] | 1190 nM |  |  |  | 94% | 102 nM |  |  | 168 nM |  |  | 
